Tested on: Japanese white rabbits
Assay: Dryness stress test using rabbits (methylene blue staining of corneas)
Type: in vivo, rabbit
Settings: eyelids open 3 hours, 100 μL per eye, 0.5% w/v or 3% w/v in physiological saline, compared with sodium chondroitin sulfate around 20,000, p<0.01
Experimental: Sodium chondroitin sulfate having a weight average molecular weight of around 20,000 (Maruha Nichiro Corporation; sodium chondroitin sulfate in Japanese Pharmaceutical Codex) or sodium chondroitin sulfate having a weight average molecular weight of around 40,000 (SEIKAGAKU CORPORATION; grade N-K) was dissolved in a physiological saline solution (Otsuka Pharmaceutical Factory, Inc.) to 0.5% w/v or 3% w/v separately to prepare test substances.
Rabbits (Japanese white rabbits (KITAYAMA LABES CO., LTD.)) classified into five groups (n=5) according to the method of Nagano et al. (Journal of the Eye, 13(2), 267-270, 1996) were put under general anesthesia, rings obtained by cutting finger portions of gloves into a ring form were then installed on the right and left eyeballs, and the eyelids were opened forcedly. […] The corneas were excised from the eye surfaces, methylene blue dye was then extracted, and the absorbance at 660 nm was measured using the microplate reader Multiskan GO (Thermo Fisher Scientific K.K.). Since a cornea lesion is formed by eye dryness, and the amount of the dye attached to the cornea surfaces increases, it can be estimated that as the absorbance value increases, the eyes become dryer.

sodium chondroitin sulfate
absorbance at 660 nm (methylene blue dye extracted from corneas): remarkably low

From patent US20230172969A1, “Ophthalmic Composition” (Rohto Pharmaceutical Co., Ltd., priority 2020, published 2023)
